This note sets out measurements from US9024017B2, “Octahydro-cyclopentapyrrolyl antagonists of CCR2” (Janssen Pharmaceutica NV, priority 2012, dated 2015).

Broadly, the IC50 is the concentration at which inhibition is half-maximal.

T1 sequence (P41597 whole entry): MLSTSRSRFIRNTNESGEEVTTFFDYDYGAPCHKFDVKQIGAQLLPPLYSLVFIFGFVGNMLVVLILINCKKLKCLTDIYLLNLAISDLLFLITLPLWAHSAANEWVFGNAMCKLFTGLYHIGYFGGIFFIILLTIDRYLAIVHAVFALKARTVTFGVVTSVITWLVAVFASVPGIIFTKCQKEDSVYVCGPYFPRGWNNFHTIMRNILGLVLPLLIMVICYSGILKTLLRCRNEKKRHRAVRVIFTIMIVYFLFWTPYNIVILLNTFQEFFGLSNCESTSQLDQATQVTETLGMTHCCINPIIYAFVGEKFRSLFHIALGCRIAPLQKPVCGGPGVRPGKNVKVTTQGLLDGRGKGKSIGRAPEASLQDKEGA

The test concerns the target T1, CCR2 (Homo sapiens, UniProt P41597).
T1 construct: host or cells: THP-1 (human monocytic cell line)
Put plainly: MCP-1 Receptor Binding Assay in THP-1 Cells. The settings on record: read-out: MCP1B_v3 IC50. As for the experimental part:
Compounds of the invention were subjected to various representative biological tests. […] MCP-1 Receptor Binding Assay in THP-1 Cells Human monocytic cell line THP-1 cells were obtained from American Type Culture Collection (Manassas, Va., USA). The THP-1 cells were grown in RPMI-1640 (RPMI: Roswell Park Memorial Institute Medium-cell culture growth media) supplemented with 10% fetal bovine serum in a humidified 5% CO2 atmosphere at 37° C. The cell density was maintained between […].
THP-1 (cells were incubated with 0.5 nM ^125I labeled MCP-1 (Perkin-Elmer Life Sciences, Inc. Boston, Mass.) in the presence of varying concentrations of either unlabeled MCP-1 (R & D Systems, Minneapolis, Minn.) or test compound for 2 hours at 30° C. in a 96 well plate. Cells were then harvested onto a filter plate, dried, and 20 μL of Microscint 20 was added to each well. Plates were counted in a TopCount NXT, Microplate Scintillation & Luminescence Counter (Perkin-Elmer Life Sciences, Inc. Boston, Mass.). Blank values (buffer only) were subtracted from all values and drug treated values were compared to vehicle treated values. 1 μM cold MCP-1 was used for nonspecific binding.
In the case of `COC1COCCC1N[C@@H]1C[C@H]2CN(S(=O)(=O)NCc3ccccc3)C[C@@]2(C(=O)N2CCc3ncc(C(F)(F)F)cc3C2)C1` (relative stereo) [Example 33, (3aR,5R,6aR)-N-Benzyl-5-(((3S*,4S*)-3-methoxytetrahydro-2H-pyran-4-yl)amino)-3a-(3-(trifluoromethyl)-5,6,7,8-tetrahydro-1,6-naphthyridine-6-carbonyl)hexahydrocyclopenta[c]pyrrole-2(1H)-sulfonamide], the IC50 is 410 nM.

Take `COC(=O)N1C[C@@H]2C[C@@H](NC3CCOCC3OC)C[C@]2(C(=O)N2CCc3ncc(C(F)(F)F)cc3C2)C1` (relative stereo) [Example 34, (3aR,5R,6aR)-Methyl 5-(((3S*,4S*)-3-methoxytetrahydro-2H-pyran-4-yl)amino)-3a-(3-(trifluoromethyl)-5,6,7,8-tetrahydro-1,6-naphthyridine-6-carbonyl)hexahydrocyclopenta[c]pyrrole-2(1H)-carboxylate]: the IC50 worked out at 50 nM.

Take `CCCOC(=O)N1C[C@@H]2C[C@@H](NC3CCOCC3OC)C[C@]2(C(=O)N2CCc3ncc(C(F)(F)F)cc3C2)C1` (relative stereo) [Example 35, (3aR,5R,6aR)-Propyl 5-(((3S*,4S*)-3-methoxytetrahydro-2H-pyran-4-yl)amino)-3a-(3-(trifluoromethyl)-5,6,7,8-tetrahydro-1,6-naphthyridine-6-carbonyl)hexahydro-cyclopenta[c]pyrrole-2(1H)-carboxylate]: the IC50 was 60 nM.

Regarding `COC1COCCC1N[C@@H]1C[C@H]2CN(C(=O)OCC(C)(C)C)C[C@@]2(C(=O)N2CCc3ncc(C(F)(F)F)cc3C2)C1` (relative stereo) [Example 36, (3aR,5R,6aR)-Neopentyl 5-(((3S*,4S*)-3-methoxytetrahydro-2H-pyran-4-yl)amino)-3a-(3-(trifluoromethyl)-5,6,7,8-tetrahydro-1,6-naphthyridine-6-carbonyl)hexahydro-cyclopenta[c]pyrrole-2(1H)-carboxylate], the half-maximal inhibitory concentration (IC50) was found to be 560 nM.

`COC1COCCC1N[C@@H]1C[C@H]2CN(C(=O)Oc3ccccc3)C[C@@]2(C(=O)N2CCc3ncc(C(F)(F)F)cc3C2)C1` (relative stereo) [Example 37, (3aR,5R,6aR)-Phenyl 5-(((3S*,4S*)-3-methoxytetrahydro-2H-pyran-4-yl)amino)-3a-(3-(trifluoromethyl)-5,6,7,8-tetrahydro-1,6-naphthyridine-6-carbonyl)hexahydro-cyclopenta[c]pyrrole-2(1H)-carboxylate]: the IC50 was found to be 150 nM.

With `C=CCOC(=O)N1C[C@@H]2C[C@@H](NC3CCOCC3OC)C[C@]2(C(=O)N2CCc3ncc(C(F)(F)F)cc3C2)C1` (relative stereo) [Example 38, (3aR,5R,6aR)-Allyl 5-(((3S*,4S*)-3-methoxytetrahydro-2H-pyran-4-yl)amino)-3a-(3-(trifluoromethyl)-5,6,7,8-tetrahydro-1,6-naphthyridine-6-carbonyl)hexahydrocyclopenta[c]pyrrole-2(1H)-carboxylate], the IC50 came out at 40 nM.

In the case of `COC1COCCC1N[C@@H]1C[C@H]2CN(C(=O)OCCN3CCOCC3)C[C@@]2(C(=O)N2CCc3ncc(C(F)(F)F)cc3C2)C1` (relative stereo) [Example 39, (3aR,5R,6aR)-2-Morpholinoethyl 5-(((3S*,4S*)-3-methoxytetrahydro-2H-pyran-4-yl)amino)-3a-(3-(trifluoromethyl)-5,6,7,8-tetrahydro-1,6-naphthyridine-6-carbonyl)hexahydrocyclopenta[c]pyrrole-2(1H)-carboxylate], the IC50 was 10 nM.

For the molecule `CCN(CC)CCOC(=O)N1C[C@@H]2C[C@@H](NC3CCOCC3OC)C[C@]2(C(=O)N2CCc3ccc(C(F)(F)F)cc3C2)C1` (relative stereo) [Example 41, (3aR,5R,6aR)-2-(Diethylamino)ethyl 5-(((3S*,4S*)-3-methoxytetrahydro-2H-pyran-4-yl)amino)-3a-(7-(trifluoromethyl)-1,2,3,4-tetrahydroisoquinoline-2-carbonyl)hexahydrocyclopenta[c]pyrrole-2(1H)-carboxylate], the IC50 stood at 10 nM.

For `COC1COCCC1N[C@@H]1C[C@H]2CN(C(=O)OCCC3CCOCC3)C[C@@]2(C(=O)N2CCc3ncc(C(F)(F)F)cc3C2)C1` (relative stereo) [Example 42, (3aR,5R,6aR)-2-(Tetrahydro-2H-pyran-4-yl)ethyl 5-(((3S*,4S*)-3-methoxytetrahydro-2H-pyran-4-yl)amino)-3a-(3-(trifluoromethyl)-5,6,7,8-tetrahydro-1,6-naphthyridine-6-carbonyl)hexahydrocyclopenta[c]pyrrole-2(1H)-carboxylate], the IC50 came out at 30 nM.

As for `COC1COCCC1N[C@@H]1C[C@H]2CN(C(=O)OCCN3CCCC3)C[C@@]2(C(=O)N2CCc3ncc(C(F)(F)F)cc3C2)C1` (relative stereo) [Example 45, (3aR,5R,6aR)-2-(Pyrrolidin-1-yl)ethyl 5-(((3S*,4S*)-3-methoxytetrahydro-2H-pyran-4-yl)amino)-3a-(3-(trifluoromethyl)-5,6,7,8-tetrahydro-1,6-naphthyridine-6-carbonyl)hexahydrocyclopenta[c]pyrrole-2(1H)-carboxyl], the IC50 is 70 nM.

`COC1COCCC1N[C@@H]1C[C@H]2CN(C(=O)OCCN3CCCC3)C[C@@]2(C(=O)N2CCc3ccc(C(F)(F)F)cc3C2)C1` (relative stereo) [Example 46, (3aR,5R,6aR)-2-(Pyrrolidin-1-yl)ethyl 5-(((3S*,4S*)-3-methoxytetrahydro-2H-pyran-4-yl)amino)-3a-(7-(trifluoromethyl)-1,2,3,4-tetrahydroisoquinoline-2-carbonyl)hexahydrocyclopenta[c]pyrrole-2(1H)-carboxylate]: the IC50 was determined as 30 nM.

In the case of `COC1COCCC1N[C@@H]1C[C@H]2CN(C(=O)OCC3CCOCC3)C[C@@]2(C(=O)N2CCc3ncc(C(F)(F)F)cc3C2)C1` (relative stereo) [Example 47, (3aR,5R,6aR)-(Tetrahydro-2H-pyran-4-yl)methyl 5-(((3S*,4S*)-3-methoxytetrahydro-2H-pyran-4-yl)amino)-3a-(3-(trifluoromethyl)-5,6,7,8-tetrahydro-1,6-naphthyridine-6-carbonyl)hexahydrocyclopenta[c]pyrrole-2(1H)-carboxylate], the IC50 was determined as 30 nM.

Consider `COCCOC(=O)N1C[C@@H]2C[C@@H](NC3CCOCC3OC)C[C@]2(C(=O)N2CCc3ncc(C(F)(F)F)cc3C2)C1` (relative stereo) [Example 48, (3aR,5R,6aR)-2-Methoxyethyl 5-(((3S*,4S*)-3-methoxytetrahydro-2H-pyran-4-yl)amino)-3a-(3-(trifluoromethyl)-5,6,7,8-tetrahydro-1,6-naphthyridine-6-carbonyl)hexahydrocyclopenta[c]pyrrole-2(1H)-carboxylate], for which the half-maximal inhibitory concentration (IC50) is 80 nM.

For the molecule `COCCOC(=O)N1C[C@@H]2C[C@@H](NC3CCOCC3OC)C[C@]2(C(=O)N2CCc3ccc(C(F)(F)F)cc3C2)C1` (relative stereo) [Example 49, (3aR,5R,6aR)-2-Methoxyethyl 5-(((3S*,4S*)-3-methoxytetrahydro-2H-pyran-4-yl)amino)-3a-(7-(trifluoromethyl)-1,2,3,4-tetrahydroisoquinoline-2-carbonyl)hexahydrocyclopenta[c]pyrrole-2(1H)-carboxylate], the IC50 is 10 nM.

As to `COC1COCCC1N[C@@H]1C[C@H]2CN(C(=O)OCCC(C)(C)O)C[C@@]2(C(=O)N2CCc3ccc(OC(F)(F)F)cc3C2)C1` (relative stereo) [Example 50, (3aR,5R,6aR)-3-Hydroxy-3-methylbutyl 5-(((3S*,4S*)-3-methoxytetrahydro-2H-pyran-4-yl)amino)-3a-(7-(trifluoromethoxy)-1,2,3,4-tetrahydroisoquinoline-2-carbonyl)hexahydrocyclopenta[c]pyrrole-2(1H)-carboxylate], the IC50 amounted to 30 nM.

Turning to `COC1COCCC1N[C@@H]1C[C@H]2CN(C(=O)OCCC(F)(F)F)C[C@@]2(C(=O)N2CCc3ncc(C(F)(F)F)cc3C2)C1` (relative stereo) [Example 51, (3aR,5R,6aR)-3,3,3-Trifluoropropyl 5-(((3S*,4S*)-3-methoxytetrahydro-2H-pyran-4-yl)amino)-3a-(3-(trifluoromethyl)-5,6,7,8-tetrahydro-1,6-naphthyridine-6-carbonyl)hexahydrocyclo-penta[c]pyrrole-2(1H)-carboxylate], the IC50 came to 140 nM.

Take `COC1COCCC1N[C@@H]1C[C@H]2CN(C(=O)OCCC#N)C[C@@]2(C(=O)N2CCc3ncc(C(F)(F)F)cc3C2)C1` (relative stereo) [Example 52, (3aR,5R,6aR)-2-Cyanoethyl 5-(((3S*,4S*)-3-methoxytetrahydro-2H-pyran-4-yl)amino)-3a-(3-(trifluoromethyl)-5,6,7,8-tetrahydro-1,6-naphthyridine-6-carbonyl)hexahydrocyclopenta[c]pyrrole-2(1H)-carboxylate]: the IC50 was 130 nM.

In the case of `C#CCOC(=O)N1C[C@@H]2C[C@@H](NC3CCOCC3OC)C[C@]2(C(=O)N2CCc3ncc(C(F)(F)F)cc3C2)C1` (relative stereo) [Example 53, (3aR,5R,6aR)-Prop-2-yn-1-yl 5-(((3S*,4S*)-3-methoxytetrahydro-2H-pyran-4-yl)amino)-3a-(3-(trifluoromethyl)-5,6,7,8-tetrahydro-1,6-naphthyridine-6-carbonyl)hexahydrocyclopenta[c]pyrrole-2(1H)-carboxylate], the IC50 was 200 nM.
